# Test results published in patent US12060592B2, “Lov-D acyltransferase mediated acylation” (priority 2009, dated 2024).
# Target: T1, LovD acyltransferase (Aspergillus terreus, UniProt Q9Y7D1)
# T1 sequence (Q9Y7D1 1-413): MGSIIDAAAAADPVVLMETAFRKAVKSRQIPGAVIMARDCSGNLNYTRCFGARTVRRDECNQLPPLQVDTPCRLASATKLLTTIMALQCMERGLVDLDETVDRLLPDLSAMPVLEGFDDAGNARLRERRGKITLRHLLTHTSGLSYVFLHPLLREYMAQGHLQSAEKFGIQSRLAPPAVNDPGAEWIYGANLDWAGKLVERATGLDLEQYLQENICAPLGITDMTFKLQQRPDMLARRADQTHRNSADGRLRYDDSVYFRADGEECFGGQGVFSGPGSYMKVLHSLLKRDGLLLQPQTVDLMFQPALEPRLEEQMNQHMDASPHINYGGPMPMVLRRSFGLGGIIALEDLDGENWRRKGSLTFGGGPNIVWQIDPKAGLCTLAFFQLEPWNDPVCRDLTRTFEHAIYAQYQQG
# Assay: LovD acyltransferase mediated acylation: relative activity of thioester acyl donors
# Format: biochemical
# Conditions: thioester as acyl donor
# Excerpt: Any one or more compounds shown in Table 1 may be used as thioesters in the methods of the present disclosure. Compound IV is one preferred thioester as its relative activity is high.
row,Compound,Relative activity at 24 h (%)
1,CCC(C)(C)C(=O)SCCC(=O)OC [Compound IV],++++ (++++ = 75-100)
2,CCCCSC(=O)C(C)(C)CC [IX],+++ (+++ = 10-75)
3,CCC(C)(C)C(=O)SC(C)C [VIII],+ (+ = 0-1)
4,CCSC(=O)C(C)(C)CC [VII],++ (++ = 1-10)
5,CCC(C)(C)C(=O)SC [VI],+ (+ = 0-1)
6,CCC(C)(C)C(=O)SCC(=O)OC [V],++ (++ = 1-10)
